Data reported in PMC9356275, “A quantitative high-throughput screen identifies compounds that lower expression of the SCA2-and ALS-associated gene ATXN2” (The Journal of Biological Chemistry, 2022).
pIC50: −log10 of the molar value. Counter-ions that a name gives are not always drawn. Like-named read-outs stand apart in the source and are kept apart here.

Key:
ATXN2-luc [1] = assay: ATXN2-luc mRNA by quantitative PCR in H2 cells; type: cell-based, human; conditions: 1 and 10 μM, 48 h
Experimental: treated with the indicated doses of DMAG for 48 hours, then ATXN2-luc mRNA abundance was
determined by quantitative PCR using primers that amplify the luciferase gene.

ATXN2-luc [2] = assay: ATXN2-luc luciferase dose-response in H2 cells, 48 h; type: cell-based; conditions: Homo sapiens
endogenous ATXN2 = assay: Endogenous ATXN2 mRNA by qPCR in HEK-293 cells; type: cell-based; conditions: Homo sapiens
BAC ATXN2-Q22 mice = assay: Survival / tolerability of treated BAC ATXN2-Q22 mice; type: in vivo, mouse
Excerpt: Our study identified 11 compounds known to inhibit HSP90, including one that was identified in our original pilot screen. […] 17-DMAG inhibited transcription of ATXN2 in HEK-293 cells in a dose-dependent manner and reduced the abundance of endogenous and mutant ATXN2 proteins in HEK-293 cells (Figs. 3 and 4). […] Toxicity was evident in our in vivo experiment as well. […] However, like for 17-DMAG, BAC ATXN2-Q22 mice treated with HSP990 had 80% reduced ATXN2 protein abundance in the cerebellum (Fig. 5B).
(§1) Control-treated mice included vehicle alone.

HSP90 = HSP90 target engagement: HSP70 abundance by Western blotting in HEK-293 cells; type: cell-based, human
[3] = parameters: method as in PMID 24471734, PMID 15791458; conditions: ref [39], [40]; cited from earlier work
ATXN2 protein = assay: Cerebellar ATXN2 protein by Western blotting in BAC ATXN2-Q22 mice; type: in vivo, mouse
Excerpt: Figure 5 Effect of HSP90 inhibitors on ATXN2 cerebellar expression in vivo in BAC ATXN2-Q22 mice. Inhibition of ATXN2 expression by 17-DMAG (A) and HSP990 (B) versus vehicle controls. Mouse ID numbers are shown above the lanes. Western blot analysis showing upregulation of HSP70 expression following 17-DMAG treatment, which indicates successful HSP90 target engagement. The human transgenic ATXN2 protein is indicated as ATXN2-Q22 and the endogenous mouse protein as mATXN2. Values shown are mean and SD. Probabilities are from Student’s t tests: ∗p < 0.05; ∗∗∗p < 0.001. Three blots were quantified. ATXN2, ataxin-2; BAC, bacterial artificial chromosome; 17-DMAG, 17-dimethylaminoethylamino-17-demethoxygeldanamycin; HSP, heat shock protein.
as §1
Proteins were prepared, separated on precast polyacrylamide gels (Bio-Rad), transferred to Hybond (Amersham), and detected by enhanced chemiluminescence (Amersham) as previously described ([12], [27]). […]

[4] = test system: endogenous nonmutant ATXN2 protein; assay: Western blotting of endogenous ATXN2 protein in HEK-293 cells; type: cell-based, human
Excerpt: (§3) To characterize a bioavailable HSP90 inhibitor, we proceeded by using 17-dimethylaminoethylamino-17-demethoxygeldanamycin (17-DMAG, also known as alvespimycin) for inhibition of ATXN2 in cultured cells instead of the original compounds identified in the screen.
Experiments were repeated three times; values are means and SD.

mutant ATXN2-Q58 protein = assay: Western blotting in HEK-293 ATXN2-Q58 KI cells; type: cell-based, human; conditions: 24 h
Experimental: as §3
Figure 4 Reduction of ATXN2 expression by 17-DMAG restores autophagy and ER stress phenotypes in ATXN2 mutant cells.A, ATXN2-Q58 HEK-293 cells were treated with 17-DMAG at the indicated doses for 24 h, and then proteins were evaluated by Western blotting. Untreated HEK-293 cells with normal A P-eIF2α TXN2 were also included. […] B, quantification of the blots in A. The n number of blots ranged from 3 to 9. Values are means and SD. Probabilities are from one-way ANOVA and post hoc Bonferroni-corrected t tests: ns; ∗p < 0.05; ∗∗p < 0.01, and ∗∗∗p < 0.001.

ATXN2 mRNA = assay: Cerebellar ATXN2 mRNA by qPCR in BAC ATXN2-Q22 mice; conditions: 4 mg/kg intraperitoneal, every other day over 10 days
[5] = parameters: method as in PMID 25625276; conditions: ref [41]; cited from earlier work
in vitro = conditions: human
Experimental: The values for H2 and S2 were used as replicates to calculate IC50s and to assess cell viability.
Compounds were plated at 2× concentrations in phenol red–free DMEM in 25 μl in 384-well plates with each compound dose plated in triplicate. An equal volume of S2, H2, or SC cells (24,000 cells/well) suspended in phenol red–free DMEM with 10% fetal bovine serum and 1× penicillin/streptomycin were added. Cells were grown 24 h and then assayed first by using the CellTiter-Fluor reagent (20 μl) followed by the addition of Bright-Glo (65 μl) luciferase assay, using a multimode plate reader (Beckman; DT880). Values were reported as the mean ± SD with n = 3. IC50s were determined by the Hill coefficient method using an online tool (https://www.aatbio.com/tools/ic50-calculator).

H2 cells = conditions: 1 nM
ATXN2-luc [6] = assay: MSSR pilot screen: ATXN2-luc luciferase assay (Bright-Glo) in H2 cells, single 10 μM dose; type: cell-based, human; conditions: for SD from mean (ATXN2-luc, Z-score): H2 cells, single dose (title: 10 μM compound), overnight; for ¦Score/1SD¦: absolute score divided by 1SD (0.891 or 0.9)
ATXN2-luc [7] = assay: MSSR hit retest: ATXN2-luc luciferase assay, average of H2 and S1 cells (1 and 10 uM); type: cell-based, human; conditions: Homo sapiens; for activity at 1 µM: read-out: H2&S1 ave luc 1uM
Excerpt: (§2) Supplement mmc2.xlsx, sheet "43 annotated compounds"

CMV-luc [8] = assay: Secondary assays: CMV-luc in SC cells, Bright-Glo; type: cell-based, human; conditions: minimum CMV-luc signal in SC cells over 12 doses; summary data
H2 and S1 cells = assay: Paired MTT viability assay, average of H2 and S1 cells (1 and 10 uM); type: cell-based, human; conditions: Homo sapiens
Excerpt: as §2

ATXN2-luc [9] = assay: Secondary assays: ATXN2-luc in S2 and H2 cells, 12 doses, Bright-Glo; type: cell-based, human
CMV-luc [10] = assay: MSSR counterscreen: CMV-luc expression in HC cells; type: cell-based, human; conditions: for CMV-luc, averages as percent of no compound control: HC cells, n=4 wells
ATXN2-luc [11] = assay: MSSR hit retest / multiconcentration testing: ATXN2-luc luciferase assay in H2 cells (1 and 10 μM); type: cell-based, human; conditions: 1 uM compound; luciferase, average of H2 and S1 cells expressing ATXN2-luc; rescreen
[12] = 100 mg/kg intraperitoneal, every other day over 16 days
[13] = pilot screen at 10 µM compound, H2 cells expressing ATXN2-luc

CO[C@H]1/C=C\C=C(/C)C(=O)NC2=CC(=O)C(NCCN(C)C)=C(C[C@@H](C)C[C@H](OC)[C@H](O)[C@@H](C)/C=C(\C)[C@@H]1OC(N)=O)C2=O [17-DMAG, 17-dimethylaminoethylamino-17-demethoxygeldanamycin]
ATXN2-luc transcription (mRNA by qPCR) (ATXN2-luc [1]): reduction of ATXN2-luc transcription
ATXN2-luc transcription (mRNA by qPCR) (ATXN2-luc [1]; listed as DMAG): reduces transcription of ATXN2-luc
pIC50 (ATXN2-luc [2]; H2 cells, read-out: IC50 for lowering ATXN2-luc): 7.03
pIC50 (endogenous ATXN2; HEK293, HEK-293 cells, read-out: IC50, endogenous ATXN2 transcription by qPCR): 6.12
Tolerability in mice (BAC ATXN2-Q22 mice; [12]): well tolerated
HSP70 abundance (HSP90): significantly increased HSP70 abundance
Oral bioavailability and blood–brain barrier crossing [3]: orally bioavailable and able to cross the blood–brain barrier
Reduction of ATXN2 protein in the cerebellum (ATXN2 protein; [12]): 90%
Abundance of endogenous nonmutant ATXN2 protein [4]: reduced the abundance of endogenous nonmutant ATXN2 protein
Mutant ATXN2 protein abundance (mutant ATXN2-Q58 protein): significantly reduced mutant ATXN2 protein

COc1cccc(-c2cc(F)ccc2[C@H]2Cc3nc(N)nc(C)c3C(=O)N2)n1 [HSP990]
Survival of treated mice (BAC ATXN2-Q22 mice; 4 mg/kg intraperitoneal, every other day over 10 days, n = 4): half of the mice we treated with HSP990 did not survive treatment
Reduced ATXN2 mRNA abundance in cerebella (ATXN2 mRNA): 20%
ATXN2 mRNA abundance in cerebella (ATXN2 mRNA; […]): 78.54 ± 3.9%
Reduced ATXN2 protein abundance in the cerebellum (ATXN2 protein; 4 mg/kg intraperitoneal, every other day over 10 days): 80%
Toxicity in clinical trial [5]: dose-limiting neurotoxicity

C[C@@H]1O[C@@H](O[C@@H]2C=C3CC[C@@H]4[C@H](CC[C@]5(C)[C@@H](c6ccc(=O)oc6)CC[C@]45O)[C@@]3(C)CC2)[C@H](O)[C@H](O)[C@H]1O [Proscillaridin A]
viability at 24 h (in vitro): 74.2%
pIC50 (ATXN2-luc [2]; read-out: IC50, ATXN2-luc expression by luciferase assay): 7.28
Cellular viability (MTT) (H2 cells): minimal effect on cellular viability
SD from mean (ATXN2-luc, Z-score) (ATXN2-luc [6]): -7.684 SD
SD from mean (pilot screen) (ATXN2-luc [6]; pilot screen): -7.684 SD
SD from mean (pilot screen) (ATXN2-luc [6]; [13]): -7.684
¦Score/1SD¦ (ATXN2-luc [6]; pilot screen): 8.62
pIC50 (endogenous ATXN2; HEK293, 48 h, read-out: IC50, endogenous ATXN2 by qPCR): 6.17
activity at 1 µM (ATXN2-luc [7]): 54%
activity (ATXN2-luc [7]; read-out: H2&S1 ave luc 10uM): 22%
min SC luc (%) (CMV-luc [8]): 121.976%
viability at 1 µM (H2 and S1 cells; read-out: H2&S1 ave MTT 1uM, 1 uM compound): 47.8%
viability at 10 µM (H2 and S1 cells; read-out: H2&S1 ave MTT 10uM, 10 uM compound): 45%
pIC50 (ATXN2-luc [9]; Homo sapiens, 24 h, read-out: IC50 for lowering ATXN2-luc): 7.77
min ATXN2-luc (%) (ATXN2-luc [9]; minimum ATXN2-luc signal over 12 doses, H2 and S2 cells, summary data): 7.9859%

CN1CCN(CCCN2c3ccccc3Sc3ccc(C(F)(F)F)cc32)CC1 [TRIFLUOPERAZINE HYDROCHLORIDE]
CMV-luc, averages as percent of no compound control (CMV-luc [10]; 0.1 uM compound): 94.6408% of no compound control
CMV-luc, averages as percent of no compound control (CMV-luc [10]; 1 uM compound): 100.563% of no compound control
CMV-luc, averages as percent of no compound control (CMV-luc [10]; 10 uM compound): 98.5115% of no compound control
Comment on CMV-luc inhibition (CMV-luc [10]; result in words): No CMV-luc inhibition at 10 uM
ATXN2 luc activity (call) (CMV-luc [10]; summary call for the 12 pilot compounds tested on CMV-luc): Unclear
SD from mean (ATXN2-luc, Z-score) (ATXN2-luc [6]): -5.856 SD
SD from mean (pilot screen) (ATXN2-luc [6]; pilot screen): -5.856 SD
SD from mean (pilot screen) (ATXN2-luc [6]; [13]): -5.856
¦Score/1SD¦ (ATXN2-luc [6]; pilot screen): 6.51
activity at 1 µM (ATXN2-luc [7]; 1 uM compound, average of H2 and S1 cells): 105%
activity at 10 µM (ATXN2-luc [7]; head line r3 10uM, average of H2 and S1 cells, read-out: H2&S1 ave luc 10uM): 1.54%
H2&S1 ave luc 1uM (ATXN2-luc [11]): 105
viability at 1 µM (H2 and S1 cells; 1 uM compound, read-out: H2&S1 ave MTT 1uM): 88.1%
viability at 10 µM (H2 and S1 cells; 10 uM compound, read-out: H2&S1 ave MTT 10uM): 8.76%
